Measured values published in patent publication US6670448B2, “Peptide antagonists of zonulin and methods for use of the same” (University of Maryland, Baltimore, priority 1998, dated 2003).
No end group written: not given here.

System: rabbit ileum
Assay: Peptide antagonists FZI/0 and FZI/1 on rabbit ileum in Ussing chambers, alone or before ZOT or zonulin
Format: cell-based
Protocol: Next, Ussing chamber assays were carried out using ileum from 2-3 kg adult male New Zealand white rabbits, which were sacrificed by cervical dislocation. A 20 cm segment of ileum was removed, rinsed free of the intestinal content, opened along the mesenteric border, and stripped of muscular and serosal layers. Eight sheets of mucosa so prepared were then mounted in lucite Ussing chambers (1.12 cm^2 opening), connected to a voltage clamp apparatus (EVC 4000 WPI, Saratosa, Fla.), and bathed with freshly prepared Ringer's solution comprising 53 mM NaCl, 5.0 mM KCl, 30.5 mM mannitol, 1.69 mM Na2HPO4, 0.3 mM NaH2PO4, 1.25 mM CaCl2, 1.1 mM MgCl2, and 25 mM NaHCO3. The bathing solution was maintained at 37° C. with water-jacketed reservoirs connected to a constant-temperature circulating pump and gassed with 95% O2/5% CO2.
100 μl of zonulin purified from rabbit intestine was added to the mucosal side. The potential difference (PD) was measured every 10 min, and the short-circuit current (Isc) and tissue resistance (Rt) were calculated as described by Fasano et al, supra. Because of tissue variability, data were calculated as ΔRt (Rt at time x)−(Rt at time 0).
Next, rabbit ileum mounted in Ussing chambers as described above, were exposed to 100 μg of FZI/0 (SEQ ID NO:15), 100 μg ofFZI/1 (SEQ ID NO:34), 1.0 μg of 6xHis-ZOT (obtained as described in Example 1), 1.0 μg of zonulini (obtained as described in Example 3), or 1.0 μg of zonulinh (obtained as described in Example 3) alone; or pre-exposed for 20 min to 100 μg of FZI/0 or FZI/1, at which time 1.0 μg of 6xHis-ZOT, 1.0 μg of zonulini, or 1.0 μg of zonulinh, was added. ΔRt was then calculated as described above.

GGVLVQPG [FZI/0, synthetic octapeptide corresponding to amino acid residues 8-15 of human fetal zonulini]
change in Rt as compared to the negative control, peptide alone (100 μg peptide alone, not significant, FIG. 8 closed bar): 0.5%
decrease of the effect of ZOT on Rt (pre-treatment 20 min with 100 μg peptide, then 1.0 μg 6xHis-ZOT, FIG. 8): 75%
decrease of the effect of zonulinh on Rt (pre-treatment 20 min with 100 μg peptide, then 1.0 μg zonulinh, FIG. 8): 100%
decrease of the effect of zonulini on Rt (pre-treatment 20 min with 100 μg peptide, then 1.0 μg zonulini, FIG. 8): 97%

VGVLGRPG [FZI/1, second synthetic peptide with positions 8, 12 and 13 changed to the residues of zonulinb (Val, Gly, Arg)]
inhibitory effect on the action of ZOT, zonulini and zonulinh on Rt (pre-exposure 20 min to 100 μg peptide, FIG. 8 shaded bar): completely ablated
